Data reported in patent publication US20040219201A1, “Tempamine compositions and methods of use” (priority 2001, published 2004).

How the values were obtained:
[1] = n-octanol/water partition coefficient (Kp); assay type: physicochemical
Experimental: Free tempamine gives well-defined peaks in both solutions of n-octanol and water. The peak area (or height) is proportional to the tempamine concentrations in the aqueous phase and in n-octanol. The tempaamine concentration in both solvents was determined from a calibration curve of temparnine in each of the two solvents n-octanol and water.
A. Partition Coefficients The n-octanol/water partition coefficient, Kp, of tempamine was measured to estimate its phase distribution in the liposomes, according to the procedure previously described (Samuni, A. et al., Free-Radic Biol Med., 22:1165 (1997)). Partition coefficients were measured at various pH levels (pH 4.0, 7.0, and 10.6), at tempamine concentrations of 2.0 mM and 20.0 mM and at different concentrations of ammonium sulfate (20-400 mM). The volume of each phase was 1 ml.

[2] = assay type: in vivo; details: free tempamine 1.8 mg/kg, four hours after injection, healthy and arthritic rats
Experimental: Studies using the AA model are described in Example 6. In this study, AA was induced in male rats by injection of microbacteria in Freund's ajuvavnt. Liposomes containing tempanine were prepared as described in Example 5A by remote loading tempamine against an ammonium sulfate gradient. The liposomes were administered by injection to healthy and arthritic rats 22 days after inducement of AA. At regular time intervals after administration of the liposomes, plasma and tissue samples were taken to determine the biodistribution and pharmacokinetics.
Adjuvent arthritis (AA) was induced by a single intradermal injection of mycobacteria in mineral oil (Freund's adjuvant). In strains of rats susceptible to adjuvant arthritis, the non-specific primary inflamnmation at the injection site was followed on about the 10th post-injection day by a disseminated polyarthritis or secondary specific inflammation. Lewis strain rats, which are highly susceptible to AA, were injected with 1 mg of Mycobacterium tuberculosis H37Ra (Difco, Detroit, Mich., USA) in Freund's complete adjuvant (FCA) (Difco), subcutaneously at the base of the tail. Maximum swelling of the paw occurred between 20 and 27 days
Adjuvent (maximum swelling). Tempamine was administered at a dose of 1.8 mg tempamine/kg (10.5 μmol/kg). The phospholipid concentration of the injected liposomes was 42 mg/kg (56 μmol/kg). […]

[3] = tested on: MCF-7 (human breast adenocarcinoma); assay: Cytotoxicity assay (methylene blue); nitroxides alone or doxorubicin plus tempamine; assay type: cell-based
Experimental: As described in Example 1, the cytotoxicity of tempamine was determined on three cell lines, MCF-7 (human breast adenocarcinoma), M-109S (doxorubicin-sensitive human breast carcinoma), and M-109R (doxorubicin-resistant human breast carcinoma). The effect of free tempamine on cell proliferation was determined by a methylene blue assay as described in Example 1B.
FIG. 4 is a plot comparing the percent survival of MCF-7 human breast carcinoma cells at various doses of tempamine (closed circles) and tempol (open circles) in vitro. The cells were analyzed after 72 hours of exposure to the nitroxides. Tempamine and tempol cell growth inhibitory activities were of similar magnitude.
In yet another aspect, the invention contemplates administration of tempamine in combination with chemotherapeutic agent. […] Doxorubicin was chosen as a model chemotherpeutic agent. The enhancement of doxorubicin cytotoxicity by tempamine was tested on three cell lines, as described in Example 1A. A cytotoxicity assay as described in Example 1B was used. Two of the cell lines, MCF-7 and M-109S, were doxorubicin-sensitive lines and one cell line, M-109R, was doxorubicin resistant. MCF-7 cells are more sensitive to tempamine (100 μM caused 75% growth inhibition), but are less sensitive to doxorubicin, than are M-109S cells.
MCF-7 (human breast adenocarcinoma), M-109S (doxorubicin-sensitive human breast carcinoma), and M-109R (doxorubicin-resistant human breast carcinoma) were maintained in RPMI medium (Biological Industries, Beit HaEmek, Israel) supplemented with 10% fetal calf serum (FCS). The cell lines were maintained under standard culture conditions at 37° C. in a humidified 5% CO2 atmosphere.
The effect of tempamine on cell proliferation was determined by the methylene blue assay (Horowitz, A. T., et al., Biochim BiophysActa. 1109:203, (1992)). Briefly, cells were seeded onto 96-well plates (MCF cells at a density of 6×10^3 cells per well, and M-109S and M-109R at a density of 1.5×10^3 cells per well) and allowed to grow for 24 hours prior to treatment with different concentrations of tempamine. After the addition of tempamine (5×10^−5 to 4×10^−4), the cells were incubated in RPMI +10% FCS for four days without change of medium. Then the cells were fixed with 2.5% glutaraldehyde, stained with methylene blue and assayed spectrophotometrically.

[4] = ammonium sulfate 20 mM, TMN 2 μmole
[5] = ammonium sulfate 20 mM, TMN 20 μmole
[6] = ammonium sulfate 150 mM, TMN 2 μmole
[7] = ammonium sulfate 150 mM, TMN 20 μmole
[8] = ammonium sulfate 400 mM, TMN 2 μmole
[9] = ammonium sulfate 400 mM, TMN 20 μmole

Compound: CC1(C)CC(N)CC(C)(C)N1[O] [tempamine, 2,2,6,6-tetramethylpiperidine-4-amino-1-oxyl]
- n-octanol/aqueous phase (Kp), pH 7 ([1]; ammonium sulfate 0 mM, TMN 20 μmole): 0.278
- n-octanol/aqueous phase (Kp), pH 4 [1, 4]: 0.031
- n-octanol/aqueous phase (Kp), pH 7 [1, 4]: 0.048
- n-octanol/aqueous phase (Kp), pH 10.6 [1, 4]: 2.418
- n-octanol/aqueous phase (Kp), pH 4 [1, 5]: 0.074
- n-octanol/aqueous phase (Kp), pH 7 [1, 5]: 0.116
- n-octanol/aqueous phase (Kp), pH 10.6 [1, 5]: 2.386
- n-octanol/aqueous phase (Kp), pH 4 [1, 6]: 0.024
- n-octanol/aqueous phase (Kp), pH 7 [1, 6]: 0.055
- n-octanol/aqueous phase (Kp), pH 10.6 [1, 6]: 2.184
- n-octanol/aqueous phase (Kp), pH 4 [1, 7]: 0.049
- n-octanol/aqueous phase (Kp), pH 7 [1, 7]: 0.038
- n-octanol/aqueous phase (Kp), pH 10.6 [1, 7]: 3.969
- n-octanol/aqueous phase (Kp), pH 4 [1, 8]: 0.028
- n-octanol/aqueous phase (Kp), pH 7 [1, 8]: 0.040
- n-octanol/aqueous phase (Kp), pH 10.6 [1, 8]: 3.005
- n-octanol/aqueous phase (Kp), pH 4 [1, 9]: 0.046
- n-octanol/aqueous phase (Kp), pH 7 [1, 9]: 0.034
- n-octanol/aqueous phase (Kp), pH 10.6 [1, 9]: 4.569
- amount of tempamine in plasma and in the tested tissues (detection limit) [2]: < 0.5 µM
- IC50 ([3]; Homo sapiens, MCF7, 72 h, read-out: IC50 (cell growth inhibition)): 210 µM
- growth inhibition ([3]; MCF-7, 100 μM tempamine): 75%
